Test results published in patent publication US20140255301A1, “METHODS FOR DETECTING NEURODEGENERATIVE DISEASES OR DISORDERS” (priority 2010, published 2014).
Entries after “also recorded” stand apart in the source; their conditions may differ. Numbered stars: 1 amine (or outer) side, 2 acyl side, 3 side chain; on linkers, the order of the positions; unused ones are H or OH. Bridge positions count the residues as written; N and C are the ends. Square brackets hold non-standard residues; d marks the D form. Peptide text beside a SMILES is read from it. I, II: the chains in the order shown. Actinocin(9to1) = Cc1c2oc3c(C)ccc(C(=O)[*:1])c3nc-2c(C(=O)[*:2])c(N)c1=O; NMeV = CN[C@H](C(=O)O)C(C)C; Sar = CNCC(=O)O

What was measured:
[1] = system: axon degeneration of DRG neurons following NGF withdrawal; assay: Campenot chamber localized axon degeneration after NGF withdrawal (Tuj1 immunostaining); format: cell-based, mouse; conditions: for axon degeneration due to NGF deprivation, inhibitor applied to the axon (axon inhibition): inhibitor in axon compartment, 28 hours NGF deprivation of axons, anti-NGF antibody 50 μg/ml; for axon degeneration due to NGF deprivation, inhibitor applied to the cell body (cell body inhibition): inhibitor in cell body compartment with 25 ng/ml NGF, axons deprived of NGF
Protocol: Campenot chambers were used to perform the following experiments which allow for the separation of somal and axonal environments, and permit the induction of localized degeneration (see FIG. 1 and, e.g., Zweifel et al., Nat. Rev. Neurosci. 6(8):615-625, 2005). In such chambers, axon degeneration is localized and proceeds without apoptosis.
Mouse laminin (5 μg/ml in sterile filtered water; Invitrogen) was added to PDL coated 35 mm dishes (BD Biosciences) and they were incubated for 1 hour at 37° C., followed by two rinses in SQ water. The dishes were vacuum-dried and then air-dried in a laminar flow hood for 15 minutes. Prepared dishes were then scored with a pin rake (Tyler Research). Fifty microliters of NBM+MC solution containing NGF was applied across the resulting score tracks. The NBM+MC solution was made as follows: 1750 mg of methylcellulose was combined with 480 ml of Neurobasal (Invitrogen), to which was added 4.5 ml penicillin/streptomycin, 7.5 ml L-glutamine, and 10 ml B-27 serum-free supplement (Invitrogen). The solution was mixed for one hour at room temperature, overnight at 4° C., and one further hour at room temperature. The solution was then filter sterilized, and 50 ng/ml NGF (Roche) was added prior to use. High vacuum grease (VWR) was added to each Teflon divider under a dissection scope. The laminin coated PDL dishes were inverted and dropped onto the Teflon divider, with additional pressure added by use of a toothpick in the non-track-containing regions. Dishes were incubated for 1 hour at 37° C. Five hundred microliters of NBM+MC (50 ng/ml NGF) solution was added to each of the side compartments, and a grease barrier was added in front of the center cell slot.
Free E13.5 spinal cords were dissected from mouse embryos and placed into NBM+MC (25 ng/ml NGF) solution. DRGs were detached from the spinal cord with a tungsten needle. An NBM+MC-lubricated P200 pipette was used to move DRGs into a 1.5 ml tube. DRGs were pelleted with a tabletop centrifuge for 30 seconds. The supernatant was discarded and 0.05% Trypsin/EDTA (cold) was added. The pellet was resolubilized with a pipette and incubated at 37° C. for 15 minutes with constant agitation (650 RPM). The sample was again centrifuged and the supernatant discarded. The pellet was resuspended in warm NBM+MC (50 ng/ml NGF) solution and triturated with a flamed glass pipette 20 times, followed by trituration with a fire-bored glass pipette another 20 times. The samples were again centrifuged and the resulting pellets were resuspended in 0.5 ml NBM+MC (50 ng/ml NGF) solution. The cells were diluted to a final concentration of 2.5×10^6 cells/ml. The cell suspensions were loaded into a 1 ml syringe with a 22 gauge needle. The center slot of the Campenot divider was filled using the syringe (to a volume of at least 50 μl). The Campenot chamber was incubated overnight at 37° C. 2.5 ml NGF+MC (50 ng/ml NGF) solution was added to the center compartment and the grease gate was removed. The outer medium (cell body compartment) was replaced after three days with 2.5 ml NBM+MC medium (with 25 ng/ml NGF).
After five days in culture, the axonal compartment was washed three times with warmed NBM+MC (no NGF) solution. After the third wash, 500 μl NBM+MC (no NGF) solution was added to the axon compartment in combination with either 0.5% DMSO or an inhibitor. The cell body compartment was replaced with 2.5 ml NBM+MC medium (with 25 ng/ml NGF) containing either 0.5% DMSO or inhibitor. Fifty μg/ml anti-NGF antibody was added to the axonal compartment. Another axon compartment was maintained in NGF as a control.
After 28 hours of NGF deprivation for axons, and 25 hours of NGF deprivation for cell bodies, 8% PFA/30% sucrose solution was added directly to the culture medium at a 1:1 dilution and incubated for 30 minutes. The Teflon divider was removed after the first 15 minutes of addition. […]

[2] = system: dleu2 and tbx6 expression; assay: Time course microarray analysis of neurons in Campenot chambers undergoing axon loss; format: cell-based, mouse; conditions: 30 μM inhibitor in outer compartment, NGF deprivation for 6 and 12 hours
Protocol: Based on the experiments described above, glycogen synthase kinase-3 (GSK-3) was identified as being a regulator of a genetic axon degeneration program acting specifically in the cell body to regulate distal axon degeneration. To identify GSK3 regulated axon degeneration genes, time course microarray analysis was performed on neurons selectively undergoing […], with or without GSK-3 inhibition.
Briefly, neurons were isolated and cultured in Campenot chambers as previously described. Campenot chambers were set up with 50 μM 5-fluoro-2′-deoxyuridine/uridine (both Sigma) added to the culture medium to reduce contamination by non-neuronal cells. On day 5, both axon compartments were washed three times with NGF-free medium and on the fourth wash, replaced with medium containing NGF (control) or NGF antibodies (50 μg/ml) (911, Genetech). The outer compartment was replaced with medium containing 30 μM of the GSK3 inhibitor ARA (EMD Biosciences) or 0.3% DMSO. RNA was extracted from neurons with or without GSK3 ARA treatment which had been cultured with NGF or deprived of NGF for 6 and 12 hours. RNA was prepared with Trizol® (Invitrogen) followed by the RNeasy® Micro Kit processing with DNAse I treatment (Qiagen) as described in Appendix C of the RNeasy® Micro Kit manual. For each condition, five Agilent Whole Mouse Genome microarray chips were used with single amplification.

SMILES | axon degeneration due to NGF deprivation, inhibitor applied to the axon (axon inhibition) [1] | axon degeneration due to NGF deprivation, inhibitor applied to the cell body (cell body inhibition) [1] | axon degeneration due to NGF deprivation, inhibitor applied to the axon (axon inhibition) ([1]; listed as actinomycin D) | axon degeneration due to NGF deprivation, inhibitor applied to the cell body (cell body inhibition) ([1]; listed as actinomycin D) | overexpression of dleu2 and tbx6 in neurons deprived of NGF [2] | overexpression of dleu2 and tbx6 in neurons deprived of NGF ([2]; listed as GSK3.ARA)
COc1nccc(-c2c(-c3ccc(F)cc3)ncn2C2CCC(O)CC2)n1 (stereo not drawn) [SB239] | exhibited less degeneration; also recorded: prevented axonal degradation | failed to prevent degeneration; also recorded: did not provide the same protective effect |  |  |  | 
N#C/C(=C\c1ccc(O)c(O)c1)C(=O)NCCCc1ccccc1 [AG555] | exhibited less degeneration; also recorded: prevented axonal degradation | failed to prevent degeneration; also recorded: did not provide the same protective effect |  |  |  | 
Cc1c2oc3c(C)ccc(C(=O)N[C@@H]4C(=O)N[C@H](C(C)C)C(=O)N5CCC[C@H]5C(=O)N(C)CC(=O)N(C)[C@@H](C(C)C)C(=O)O[C@@H]4C)c3nc-2c(C(=O)N[C@@H]2C(=O)N[C@H](C(C)C)C(=O)N3CCC[C@H]3C(=O)N(C)CC(=O)N(C)[C@@H](C(C)C)C(=O)O[C@@H]2C)c(N)c1=O [Act D, actinomycin D] (I: T[dV]P[Sar][NMeV] / II: T[dV]P[Sar][NMeV]; ester I:1-I:C, II:1-II:C; linker I:N-II:N via Actinocin(9to1)) | did not prevent axonal degradation | axon degradation due to NGF deprivation was reduced | did not provide the same protective effect | prevented axonal degeneration |  | 
COc1ccc(CNC(=O)Nc2ncc([N+](=O)[O-])s2)cc1 [GSK3 ARA] |  |  |  |  | overexpression of these genes is not observed at any time point | Increased expression of dleu2 and tbx6 is not observed
O=C1NC(=O)C(c2ccccc2[N+](=O)[O-])=C1Nc1ccc(O)c(Cl)c1 [SB415] | did not prevent axonal degradation; also recorded: did not provide the same protective effect | axon degradation due to NGF deprivation was reduced; also recorded: prevented axonal degeneration |  |  |  | 
